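Tested at 5 concentrations; 48 h exposure; 96-well plates; endpoints linearly interpolated, else capped at highest concentration. Here, GI50 denotes the concentration required for 50% inhibition of growth.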 Active and inactive are the calls of the source. No stated cut-off is given here; in the data, active = GI50 up to about 1.1 µM and inactive = higher.
Key:
Assay in all cases: inhibition of tumour cell growth, NCI panel, 48 h
OVCAR-8 = tested on: OVCAR-8
SF-268 = tested on: SF-268
UO-31 = tested on: UO-31
M14 = tested on: M14
HOP-92 = tested on: HOP-92
OVCAR-4 = tested on: OVCAR-4
786-0 = tested on: 786-0
NCI-H460 = tested on: NCI-H460
HOP-62 = tested on: HOP-62
IGROV-1 = tested on: IGROV-1
SR = tested on: SR
OVCAR-3 = tested on: OVCAR-3
RXF 393 = tested on: RXF 393
EKVX = tested on: EKVX
SN12C = tested on: SN12C
SNB-19 = tested on: SNB-19
HCT-15 = tested on: HCT-15
HL-60 = tested on: HL-60
K562 = tested on: K562
TK-10 = tested on: TK-10

Row | Structure (SMILES) | GI50 (OVCAR-8) | GI50 (SF-268) | GI50 (UO-31) | GI50 (M14) | GI50 (HOP-92) | GI50 (OVCAR-4) | GI50 (786-0) | GI50 (NCI-H460) | GI50 (HOP-62) | GI50 (IGROV-1) | GI50 (SR) | GI50 (OVCAR-3) | GI50 (RXF 393) | GI50 (EKVX) | GI50 (SN12C) | GI50 (SNB-19) | GI50 (HCT-15) [µM] | GI50 (HL-60) | GI50 (K562) | GI50 (TK-10)
1 | Cc1cccc(NC(=S)N/N=C2\C(=O)Nc3ccccc32)c1 | > 100 µM (inactive) | 4.98 µM (inactive) | 63.2 µM (inactive) | 60.8 µM (inactive) | > 100 µM (inactive) | 34.9 µM (inactive) | 59.4 µM (inactive) | 48.3 µM (inactive) | 62.7 µM (inactive) | 49.3 µM (inactive) | 70.3 µM (inactive) | 32.3 µM (inactive) | 30.1 µM (inactive) | 31.3 µM (inactive) | 91.4 µM (inactive) | > 100 µM (inactive) | 73.8 | 67.8 µM (inactive) | 65.8 µM (inactive) | –
2 | COc1ccc(C2c3cc4c(cc3OC(N3CCOCC3)C2C)OCO4)cc1OC (stereo unspecified) | 20.4 µM (inactive) | 13.9 µM (inactive) | 18 µM (inactive) | 5.38 µM (inactive) | 8.95 µM (inactive) | 15.8 µM (inactive) | 8.15 µM (inactive) | 6.3 µM (inactive) | 12 µM (inactive) | 7.64 µM (inactive) | 7.36 µM (inactive) | 3.3 µM (inactive) | 5.89 µM (inactive) | 24.4 µM (inactive) | 22.6 µM (inactive) | 7.18 µM (inactive) | 4.76 | 3.06 µM (inactive) | 4.31 µM (inactive) | 15.6 µM (inactive)
3 | CC/C=C/C[C@H](O[Si](C)(C)C(C)(C)C)[C@H]1C[C@H]2O[C@H]([C@@H](O)C#C[Si](C)(C)C)C[C@H]2O1 | 14.8 µM (inactive) | 13.8 µM (inactive) | 14.2 µM (inactive) | 12.1 µM (inactive) | 10.4 µM (inactive) | 5.85 µM (inactive) | 14.7 µM (inactive) | 15.8 µM (inactive) | 16.1 µM (inactive) | 14.3 µM (inactive) | 2.31 µM (inactive) | 14.8 µM (inactive) | 6.65 µM (inactive) | 12.9 µM (inactive) | 5.36 µM (inactive) | 13.8 µM (inactive) | 13.7 | 3.84 µM (inactive) | 13.9 µM (inactive) | 15.2 µM (inactive)
4 | CC1CCC(=O)C(C(O)CC2CC(=O)N(c3ccccc3)C(=O)C2)C1 (stereo unspecified) | > 100 µM (inactive) | > 100 µM (inactive) | > 100 µM (inactive) | > 100 µM (inactive) | > 100 µM (inactive) | > 100 µM (inactive) | > 100 µM (inactive) | > 100 µM (inactive) | > 100 µM (inactive) | > 100 µM (inactive) | > 100 µM (inactive) | > 100 µM (inactive) | > 100 µM (inactive) | > 100 µM (inactive) | > 100 µM (inactive) | > 100 µM (inactive) | – | > 100 µM (inactive) | > 100 µM (inactive) | > 100 µM (inactive)
5 | NCCCCNCCCNC(=O)c1nc(-c2nc(CCN)sc2Cl)sc1Cl | > 100 µM (inactive) | 6.98 µM (inactive) | > 100 µM (inactive) | 70.1 µM (inactive) | > 100 µM (inactive) | 29.9 µM (inactive) | – | 27.7 µM (inactive) | 59.7 µM (inactive) | > 100 µM (inactive) | 6.87 µM (inactive) | > 100 µM (inactive) | 12.4 µM (inactive) | > 100 µM (inactive) | > 100 µM (inactive) | > 100 µM (inactive) | > 100 | > 100 µM (inactive) | 9.35 µM (inactive) | > 100 µM (inactive)
6 | CCCc1[nH]c(SCCCCCCCCSc2nc(-c3ccc(F)cc3)c(CCC)[nH]2)nc1-c1ccc(F)cc1 | 9.84 µM (inactive) | 3.33 µM (inactive) | 6.11 µM (inactive) | 17.3 µM (inactive) | 3.8 µM (inactive) | 10.3 µM (inactive) | – | 35.2 µM (inactive) | 15.2 µM (inactive) | 37.7 µM (inactive) | 7.08 µM (inactive) | 1.94 µM (inactive) | 27.4 µM (inactive) | 4.89 µM (inactive) | 9.42 µM (inactive) | 21.3 µM (inactive) | 7 | 6.5 µM (inactive) | 3.83 µM (inactive) | 17.7 µM (inactive)
7 | COc1cc(C=O)cc(/C=N/c2ccc(S(N)(=O)=O)cc2)c1O | 6.21 µM (inactive) | 4.13 µM (inactive) | 5.51 µM (inactive) | 3.92 µM (inactive) | 2.86 µM (inactive) | > 100 µM (inactive) | – | 26.2 µM (inactive) | 13.5 µM (inactive) | > 100 µM (inactive) | 6.11 µM (inactive) | 26.1 µM (inactive) | 3.99 µM (inactive) | 56.2 µM (inactive) | 6.65 µM (inactive) | 11.3 µM (inactive) | 63.1 | 25.4 µM (inactive) | 47 µM (inactive) | 31.7 µM (inactive)
8 | CC(=O)n1nnc2ccc([N+](=O)[O-])cc21 | > 100 µM (inactive) | > 100 µM (inactive) | > 100 µM (inactive) | > 100 µM (inactive) | > 100 µM (inactive) | > 100 µM (inactive) | > 100 µM (inactive) | > 100 µM (inactive) | > 100 µM (inactive) | > 100 µM (inactive) | > 100 µM (inactive) | > 100 µM (inactive) | > 100 µM (inactive) | > 100 µM (inactive) | > 100 µM (inactive) | > 100 µM (inactive) | – | > 100 µM (inactive) | > 100 µM (inactive) | > 100 µM (inactive)
9 | C#C[C@H](CCCC)OC(=O)N[C@H](C)c1ccccc1 | 49.3 µM (inactive) | 63.7 µM (inactive) | 26.9 µM (inactive) | 41.8 µM (inactive) | 57.5 µM (inactive) | 42 µM (inactive) | 49.1 µM (inactive) | 58.2 µM (inactive) | > 100 µM (inactive) | 75.3 µM (inactive) | 26.9 µM (inactive) | 53.3 µM (inactive) | 30.9 µM (inactive) | 50.6 µM (inactive) | > 100 µM (inactive) | > 100 µM (inactive) | – | 17.5 µM (inactive) | 34.6 µM (inactive) | 37.8 µM (inactive)
10 | O=C(Nc1nc2ncn(CCO)c2c(=O)[nH]1)c1ccccc1 | > 100 µM (inactive) | > 100 µM (inactive) | > 100 µM (inactive) | > 100 µM (inactive) | > 100 µM (inactive) | > 100 µM (inactive) | > 100 µM (inactive) | > 100 µM (inactive) | > 100 µM (inactive) | > 100 µM (inactive) | > 100 µM (inactive) | > 100 µM (inactive) | > 100 µM (inactive) | > 100 µM (inactive) | > 100 µM (inactive) | > 100 µM (inactive) | > 100 | > 100 µM (inactive) | > 100 µM (inactive) | > 100 µM (inactive)
11 | CC1OC(n2cc(F)c(=O)[nH]c2=O)CCC1O (stereo unspecified) | > 85.3 µM (inactive) | > 100 µM (inactive) | 85.3 µM (inactive) | > 91.4 µM (inactive) | > 100 µM (inactive) | > 100 µM (inactive) | > 100 µM (inactive) | 50.8 µM (inactive) | > 87.1 µM (inactive) | > 100 µM (inactive) | > 94 µM (inactive) | > 100 µM (inactive) | > 79.6 µM (inactive) | > 100 µM (inactive) | > 100 µM (inactive) | > 100 µM (inactive) | > 94.4 | > 79.4 µM (inactive) | > 100 µM (inactive) | > 100 µM (inactive)
12 | COc1cc(/C=C2/C(=O)NC(Cc3cc(OC)c(OC)c(C)c3OC)C(=O)N2Cc2ccccc2)c(OC)c(C)c1OC (stereo unspecified) | 47.4 µM (inactive) | 69.5 µM (inactive) | 26 µM (inactive) | 33 µM (inactive) | 17.8 µM (inactive) | 44.4 µM (inactive) | 79.3 µM (inactive) | 38.1 µM (inactive) | > 100 µM (inactive) | 61.9 µM (inactive) | 14.3 µM (inactive) | 47.2 µM (inactive) | > 100 µM (inactive) | 38.9 µM (inactive) | 54.3 µM (inactive) | 81.3 µM (inactive) | – | 24.4 µM (inactive) | 44.2 µM (inactive) | 56.5 µM (inactive)
13 | C=C(C)COc1ccc2c(c1)CCC1C2CCC2(C)C(=O)/C(=N/O)CC12 (stereo unspecified) | 6.92 µM (inactive) | 3.81 µM (inactive) | 3.9 µM (inactive) | 4.13 µM (inactive) | 2.3 µM (inactive) | 2.39 µM (inactive) | 2.86 µM (inactive) | 1.57 µM (inactive) | 5.43 µM (inactive) | 1.61 µM (inactive) | 0.966 µM (active) | 3.43 µM (inactive) | 1.19 µM (inactive) | 2.59 µM (inactive) | 3.13 µM (inactive) | 11.8 µM (inactive) | 2.41 | 1.78 µM (inactive) | 2.73 µM (inactive) | 1.35 µM (inactive)
14 | O=C1NC(=O)C(CC2CCCCCCCCCCC2=O)C(=O)N1 (stereo unspecified) | > 100 µM (inactive) | > 100 µM (inactive) | 74 µM (inactive) | > 100 µM (inactive) | > 100 µM (inactive) | > 100 µM (inactive) | > 100 µM (inactive) | > 100 µM (inactive) | > 100 µM (inactive) | > 100 µM (inactive) | 0.041 µM (active) | > 100 µM (inactive) | > 100 µM (inactive) | > 100 µM (inactive) | > 100 µM (inactive) | > 100 µM (inactive) | > 100 | 4.94 µM (inactive) | – | > 100 µM (inactive)

Reference: ChEMBL document CHEMBL1201862, “PubChem BioAssay data set” (2004)
